Data from ChEMBL document CHEMBL1201862, “PubChem BioAssay data set” (2004).
Active and inactive are the calls of the source.

Experiments:
Bcl-2-like protein 10 = biological target: T1, Bcl-2-like protein 10 (Homo sapiens, UniProt Q9HD36); test: Bcl-B/TR3 peptide binding disruption – biochemical, fluorescence polarization, FITC-TR3 peptide, selectivity assay for Bfl-1 inhibitor project, primary screen (AID 748);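 also: fluorescence polarization from a fluorescein-labelled TR3 peptide binding purified Bcl-B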
T1 sequence (Q9HD36 whole entry): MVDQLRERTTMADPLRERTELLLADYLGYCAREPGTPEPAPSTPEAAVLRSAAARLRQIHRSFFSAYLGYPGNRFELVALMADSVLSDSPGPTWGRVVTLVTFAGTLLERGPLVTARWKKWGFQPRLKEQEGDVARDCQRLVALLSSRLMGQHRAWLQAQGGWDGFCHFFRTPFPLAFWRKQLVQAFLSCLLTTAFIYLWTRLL

[1] = biological target: Glutathione-S-transferase (Schistosoma japonicum, UniProt Q26513); test: GST-antibody interaction or FRET quenching – biochemical, TR-FRET, artefact control for Vif-APOBEC3G degradation inhibitor project, dose response (AID 1117362); assay type: functional
[2] = biological target: T2, Runt-related transcription factor 1/Core-binding factor subunit beta (Homo sapiens, UniProt Q01196+Q13951); test: Runt domain/CBFb-SMMHC interaction disruptors – biochemical, TR-FRET (AID 1438); assay type: protein assay
[3] = biological target: T2, Runt-related transcription factor 1/Core-binding factor subunit beta; test: disruptors of Runt domain/CBFb-SMMHC interaction – biochemical, FRET, Cerulean-Runt, Venus-CBFb-SMMHC, uHTS, […] (AID 1434); assay type: protein assay
[4] = biological target: T3, Kappa-type opioid receptor (Homo sapiens, UniProt P41145); test: kappa opioid receptor activation potency – imaging, image-based, SAR follow-up (AID 2359); assay type: functional
[5] = biological target: T4, Delta-type opioid receptor (Homo sapiens, UniProt P41143); test: delta opioid receptor blockers – image-based, SAR follow-up (AID 2357); assay type: functional
[6] = biological target: T3, Kappa-type opioid receptor; test: kappa opioid receptor blockers, cell-based, luminescence, beta-arrestin, SAR follow-up (AID 2285); assay type: functional
Mu-type opioid receptor [7] = biological target: T5, Mu-type opioid receptor (Homo sapiens, UniProt P35372); test: mu opioid receptor blockers – image-based, SAR follow-up (AID 2420); assay type: functional;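 also: compounds added before stimulation of receptor with agonist DAMGO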
Mu-type opioid receptor [8] = biological target: T5, Mu-type opioid receptor; test: mu opioid receptor activators, image-based, SAR follow-up (AID 2352); assay type: functional
[9] = biological target: T4, Delta-type opioid receptor; test: DOR agonists, SAR follow-up, image-based (AID 2370); assay type: functional
[10] = biological target: T3, Kappa-type opioid receptor; test: kappa opioid receptor blockers, image-based, SAR follow-up (AID 2348); assay type: functional
[11] = biological target: T6, Tyrosine-protein phosphatase non-receptor type 22 (Homo sapiens, UniProt Q9Y2R2); assay type: functional
T6 sequence (Q9Y2R2 whole entry): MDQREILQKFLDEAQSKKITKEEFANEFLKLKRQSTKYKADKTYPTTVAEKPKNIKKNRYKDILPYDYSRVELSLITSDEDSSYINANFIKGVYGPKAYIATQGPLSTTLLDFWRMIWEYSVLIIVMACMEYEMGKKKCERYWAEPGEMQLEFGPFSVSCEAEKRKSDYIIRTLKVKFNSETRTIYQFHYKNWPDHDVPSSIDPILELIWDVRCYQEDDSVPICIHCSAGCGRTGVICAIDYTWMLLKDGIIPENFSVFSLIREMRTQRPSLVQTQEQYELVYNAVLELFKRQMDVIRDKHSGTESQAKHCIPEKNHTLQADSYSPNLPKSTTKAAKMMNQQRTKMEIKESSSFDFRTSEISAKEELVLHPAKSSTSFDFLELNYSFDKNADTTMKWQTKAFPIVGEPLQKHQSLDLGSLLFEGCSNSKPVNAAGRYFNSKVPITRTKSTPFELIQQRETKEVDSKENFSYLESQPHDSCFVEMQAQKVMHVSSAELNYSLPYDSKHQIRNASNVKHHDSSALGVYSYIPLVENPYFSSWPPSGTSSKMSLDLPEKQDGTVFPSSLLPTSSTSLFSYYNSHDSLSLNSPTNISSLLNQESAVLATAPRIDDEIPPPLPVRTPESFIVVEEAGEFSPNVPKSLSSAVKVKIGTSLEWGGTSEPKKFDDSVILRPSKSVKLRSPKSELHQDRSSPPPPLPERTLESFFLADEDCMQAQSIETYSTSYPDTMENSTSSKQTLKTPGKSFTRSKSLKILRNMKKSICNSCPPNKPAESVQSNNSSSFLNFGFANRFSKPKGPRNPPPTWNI

[12] = biological target: T6, Tyrosine-protein phosphatase non-receptor type 22; assay type: functional; remark: listed apart in the source
Troponin, cardiac muscle = Troponin, cardiac muscle (Homo sapiens, UniProt P19429+P45379+P63316); test: Fluorescence-based biochemical high throughput dose response assay for activators of the calcium sensitivity of cardiac Regulated Thin Filaments (RTF). [Related pubchem assays (depositor defined):AID493008, AID493018, AID504382, AID504383]; assay type: protein-complex assay
[13] = biological target: T7, Endoribonuclease toxin MazF (Escherichia coli K-12, UniProt P0AE70); test: activation of MazEF endoribonuclease cleavage – biochemical, fluorescence, single-stranded RNA substrate, uHTS hits, dose response (AID 588481); assay type: functional
T7 sequence (P0AE70 whole entry): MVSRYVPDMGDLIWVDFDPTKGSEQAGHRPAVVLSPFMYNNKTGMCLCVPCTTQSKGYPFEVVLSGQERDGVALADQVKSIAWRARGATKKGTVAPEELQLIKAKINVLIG

[14] = biological target: T7, Endoribonuclease toxin MazF; test: substrate-only fluorescence increase artefacts – biochemical, single-stranded RNase substrate, counter-screen for MazEF activator project, dose response (AID 588502); assay type: functional
[15] = biological target: T8, Tyrosine-protein phosphatase non-receptor type 7 (Homo sapiens, UniProt P35236); assay type: functional
T8 sequence (P35236 whole entry): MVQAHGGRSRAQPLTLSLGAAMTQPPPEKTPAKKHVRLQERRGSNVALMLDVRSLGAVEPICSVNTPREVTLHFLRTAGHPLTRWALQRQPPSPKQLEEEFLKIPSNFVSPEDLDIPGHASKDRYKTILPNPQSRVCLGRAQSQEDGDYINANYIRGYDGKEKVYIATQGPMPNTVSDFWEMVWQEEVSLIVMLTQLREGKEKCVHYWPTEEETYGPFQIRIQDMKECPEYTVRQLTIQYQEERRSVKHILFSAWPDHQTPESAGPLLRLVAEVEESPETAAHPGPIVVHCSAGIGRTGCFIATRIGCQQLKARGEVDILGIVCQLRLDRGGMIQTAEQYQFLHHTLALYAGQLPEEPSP

Cannabinoid receptor 1 = Cannabinoid receptor 1 (Homo sapiens, UniProt P21554); test: SAR analysis of antagonists of the Cannabinoid Receptor 1 using an Image-Based Assay. [Related pubchem assays (depositor defined):AID1961, AID1965]; assay type: functional
[16] = biological target: T9, G-protein coupled receptor 55 (Homo sapiens, UniProt Q9Y2T6); test: SAR analysis of selective Agonists of GPR55 using an Image-Based Assay. [Related pubchem assays (depositor defined):AID1961, AID1965]; assay type: functional
Cannabinoid receptor 2 [17] = biological target: T10, Cannabinoid receptor 2 (Homo sapiens, UniProt P34972); test: SAR analysis of agonists of the Cannabinoid Receptor 2 using an Image-Based Assay - Set 2. [Related pubchem assays (depositor defined):AID1961, AID1965]; assay type: functional
Cannabinoid receptor 2 [18] = biological target: T10, Cannabinoid receptor 2; test: SAR analysis of antagonists of the Cannabinoid Receptor 2 using an Image-Based Assay - Set 2. [Related pubchem assays (depositor defined):AID1961, AID1965]; assay type: functional
[19] = biological target: T9, G-protein coupled receptor 55; test: selective activators of receptor GPR55 – imaging, U2OS cells, beta-arrestin-GFP redistribution, primary screen (AID 1961); assay type: functional
[20] = biological target: Eukaryotic translation initiation factor 4E (Mus musculus, UniProt P63073); test: blockers of eIF4G binding by eIF4E – biochemical, TR-FRET, dose response (AID 855); assay type: functional;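 also: potency for disrupting eIF4E binding to eIF4GI seen as loss of FRET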
[21] = biological target: T11, Dual specificity protein phosphatase 3 (Homo sapiens, UniProt P51452); test: VHR1 phosphatase inhibitors, biochemical (AID 1878)
[22] = biological target: T12, Dual specificity protein phosphatase 6 (Rattus norvegicus, UniProt Q64346); test: inhibition of rat DUSP6 enzyme activity – biochemical, in vitro, primary screen (AID 425)
T12 sequence (Q64346 whole entry): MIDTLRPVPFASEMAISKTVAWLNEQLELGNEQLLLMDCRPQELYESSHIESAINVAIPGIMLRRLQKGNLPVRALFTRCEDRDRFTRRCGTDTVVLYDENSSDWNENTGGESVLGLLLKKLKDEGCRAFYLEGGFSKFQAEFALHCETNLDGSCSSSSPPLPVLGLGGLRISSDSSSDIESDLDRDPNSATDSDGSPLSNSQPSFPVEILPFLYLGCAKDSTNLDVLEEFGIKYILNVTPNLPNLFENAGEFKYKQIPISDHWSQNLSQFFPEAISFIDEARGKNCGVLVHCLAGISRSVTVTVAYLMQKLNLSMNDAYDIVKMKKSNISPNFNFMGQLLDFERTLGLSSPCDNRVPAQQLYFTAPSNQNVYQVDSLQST

[23] = biological target: T11, Dual specificity protein phosphatase 3; test: VHR1 phosphatase inhibitors, primary screen, biochemical, absorbance, uHTS (AID 1654)
[24] = biological target: Induced myeloid leukemia cell differentiation protein Mcl-1 (Homo sapiens, UniProt Q07820); assay type: functional
[25] = biological target: T13, Voltage-gated N-type calcium channel alpha-1B subunit/Amyloid beta A4 precursor protein-binding family A member 1 (Homo sapiens, UniProt Q00975+Q02410); assay type: protein assay
[26] = biological target: T13, Voltage-gated N-type calcium channel alpha-1B subunit/Amyloid beta A4 precursor protein-binding family A member 1; assay type: protein assay; remark: listed apart in the source
[27] = biological target: Signal transducer and activator of transcription 1-alpha/beta (Homo sapiens, UniProt P42224); test: STAT3 blockade with qPCR and toxicity readouts – cell-based, STAT1 panel, cytotoxicity, late-stage follow-up, panel member STAT1 Inhibition (AID 2078)
[28] = biological target: Signal transducer and activator of transcription 3 (Homo sapiens, UniProt P40763); test: STAT3 blockade with qPCR and toxicity readouts – cell-based, STAT1 panel, cytotoxicity, late-stage follow-up, panel member STAT3 Inhibition (AID 2078)
[29] = biological target: T3, Kappa-type opioid receptor; test: SAR analysis of small molecule agonists of the kappa opioid receptor via a luminescent beta-arrestin assay - Set 3. [Related pubchem assays (depositor defined):AID1777, AID1785, AID1786, AID1966, AID2133, AID2136, AID2284, AID2500]; assay type: functional

SMILES: CN1CCc2c(sc3c2c(NCc2ccco2)nc2nnnn23)C1
- IC50 (Bcl-2-like protein 10): 38.8 µM (active)
- IC50 [1]: 31.1 µM (active)
- IC50 [2]: 56.3 µM (inactive)
- IC50 [3]: 80 µM (inactive)

SMILES: Cc1ccc(C)c(N2CCN(CCCNC(=O)CCn3c(=O)c4cccn4c4cccnc43)CC2)c1
- EC50 [4]: > 32 µM (inactive)
- IC50 [5]: > 32 µM (inactive)
- IC50 [6]: > 10 µM (inactive)
- IC50 (Mu-type opioid receptor [7]): > 32 µM (inactive)
- EC50 (Mu-type opioid receptor [8]): > 32 µM (inactive)
- EC50 [9]: > 32 µM (inactive)
- IC50 [10]: > 32 µM (inactive)

SMILES: Cc1ccc(N=Nc2c(O)n(CN3CCOCC3)c3ccccc23)cc1
- IC50 [11]: > 79.4 µM (inactive)
- IC50 [12]: > 79.4 µM (inactive)
- EC50 (Troponin, cardiac muscle): > 71.5 µM (inactive)
- EC50 [13]: 39.4 µM (inactive)
- EC50 [14]: 50.5 µM (inactive)
- IC50 [15]: > 79.4 µM (inactive)

SMILES: CN(C)S(=O)(=O)c1ccc(N2CCCC2)c(C(=O)N2CCN(c3ccc([N+](=O)[O-])cc3)CC2)c1
- IC50 (Cannabinoid receptor 1): > 32 µM (inactive)
- EC50 [16]: 0.66 µM (active)
- EC50 (Cannabinoid receptor 2 [17]): > 32 µM (inactive)
- IC50 (Cannabinoid receptor 2 [18]): > 32 µM (inactive)
- EC50 [19]: 0.689 µM (active)

SMILES: COc1cc(/C=C2\SC(=O)N(c3ccc(Cl)cc3)C2=O)cc([N+](=O)[O-])c1O
- IC50 [20]: 50 µM (inactive)
- IC50 [21]: 2.3 µM (active)
- IC50 [22]: > 158 µM (not active)
- IC50 [23]: 2.92 µM (active)
- IC50 [24]: 3.07 µM (active)
- IC50 [25]: > 50 µM (inactive)
- IC50 [26]: > 56.8 µM (not active)

SMILES: O=C(c1ccccc1)C1CCN(c2ncnc3sc4c(c23)CCCC4)CC1
- IC50 [27]: > 55.7 µM (inactive)
- IC50 [28]: > 18.6 µM (inactive)

SMILES: Cc1ccc2nc(O)c(CN(Cc3ccccc3)C(=O)c3ccccn3)cc2c1
- EC50 [29]: 9.25 µM (active)
